Starred links: 1 amine or outer side, 2 acyl side, 3 side chain; linkers in the order of their positions; H or OH if unused. Residues, ends and D or L forms follow the SMILES beside them. Groups on a side chain read outwards from the residue. *: point of attachment. C20 diacid = O=C(O)CCCCCCCCCCCCCCCCCCC(=O)*; C18 diacid = O=C(O)CCCCCCCCCCCCCCCCC(=O)*; γGlu = O=C(O)[C@H](CCC(=O)[*:2])N[*:1]; AEEA = NCCOCCOCC(=O)O
Target: T1, human CRF2α receptor (Homo sapiens, UniProt Q13324)
T1 construct: expressed in transfected cells; host or cells: TeloHEAC
T1 sequence (Q13324 1-411): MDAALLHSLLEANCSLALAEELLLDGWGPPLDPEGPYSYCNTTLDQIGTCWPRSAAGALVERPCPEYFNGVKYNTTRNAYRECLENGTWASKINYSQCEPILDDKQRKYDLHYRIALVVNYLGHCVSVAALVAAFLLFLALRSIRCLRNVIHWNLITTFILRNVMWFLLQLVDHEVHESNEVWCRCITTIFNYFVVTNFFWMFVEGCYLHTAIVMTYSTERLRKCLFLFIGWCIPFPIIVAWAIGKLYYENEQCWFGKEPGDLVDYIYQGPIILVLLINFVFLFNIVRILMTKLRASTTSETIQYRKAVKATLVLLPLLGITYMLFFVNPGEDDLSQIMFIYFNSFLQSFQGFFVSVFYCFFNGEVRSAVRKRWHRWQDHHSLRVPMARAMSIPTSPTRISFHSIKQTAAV
Test: cAMP agonism at human CRF2 α receptor in TeloHEAC cells (Example 7)
Type: cell-based
Settings: cAMP HTRF, TeloHEAC cells stably expressing human CRF2 α, 0% HSA; read-out: EC50 [nM], 0% HSA
Outline: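 Steps: thaw and wash cells; suspend in 1×HBSS, 20 mM HEPES, 0 or 0.1% HSA, 2 mM IBMX; add compound, 30 min RT; lyse with HTRF reagents, 1 h; read 665/620 nm. EC50 calculated, E% versus 1000 nM UCN2.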

| Structure (SMILES) | EC50 |
| --- | --- |
| CC[C@H](C)[C@H](NC(=O)[C@H](CCC(N)=O)NC(=O)[C@H](CCCCNC(=O)COCCOCCNC(=O)COCCOCCNC(=O)CC[C@H](NC(=O)CCCCCCCCCCCCCCCCC(=O)O)C(=O)O)NC(=O)[C@@H](NC(=O)[C@H](CCCCN)NC(=O)[C@@H](NC(=O)[C@@H]1CCCN1C(=O)[C@@H](NC(=O)[C@H](CC(=O)O)NC(=O)[C@H](CC(C)C)NC(=O)[C@H](CO)NC(=O)[C@H](CC(C)C)NC(=O)[C@@H](NC(=O)[C@@H](N)Cc1ccccc1)[C@@H](C)O)C(C)C)[C@@H](C)O)[C@@H](C)CC)C(=O)N[C@@H](CC(C)C)C(=O)N[C@@H](CC(C)C)C(=O)N[C@@H](CCCCN)C(=O)N[C@@H](CCC(N)=O)C(=O)N[C@@H](CCC(N)=O)C(=O)N[C@@H](CCCCN)C(=O)N[C@@H](CCC(N)=O)C(=O)N[C@@H](CCCCN)C(=O)N[C@@H](CCCCN)C(=O)N[C@@H](CCC(=O)O)C(=O)N[C@@H](CCCNC(=N)N)C(=O)N[C@@H](CCC(N)=O)C(=O)N[C@@H](CCCCN)C(=O)N[C@@H](C)C(=O)N[C@@H](CCC(=O)O)C(=O)N[C@H](C(=O)N[C@@H](CC(N)=O)C(=O)N[C@H](C(=O)N[C@@H](CCC(N)=O)C(=O)N[C@@H](CC(C)C)C(=O)N[C@@H](CC(C)C)C(=O)N[C@@H](CCC(=O)O)C(=O)N[C@@H](CCCNC(=N)N)C(=O)N[C@H](C(N)=O)C(C)C)C(C)C)[C@@H](C)O [compound 55] (H-FTLSLDVPTKIK([AEEA-AEEA-γGlu-C18 diacid])QILLKQQKQKKERQKAETNVQLLERV-NH2; N-terminus assumed) | 48.5 nM |
| CC[C@H](C)[C@H](NC(=O)[C@H](CCC(N)=O)NC(=O)[C@H](CCCCNC(=O)COCCOCCNC(=O)COCCOCCNC(=O)CC[C@H](NC(=O)CCCCCCCCCCCCCCCCC(=O)O)C(=O)O)NC(=O)[C@H](CC(C)C)NC(=O)CNC(=O)[C@@H](NC(=O)[C@@H]1CCCN1C(=O)[C@@H](NC(=O)[C@H](CC(=O)O)NC(=O)[C@H](CC(C)C)NC(=O)[C@H](CO)NC(=O)[C@H](CC(C)C)NC(=O)[C@@H](NC(=O)[C@@H](N)Cc1ccccc1)[C@@H](C)O)C(C)C)[C@@H](C)CC)C(=O)N[C@@H](CC(C)C)C(=O)N[C@@H](CC(C)C)C(=O)N[C@@H](CCCCN)C(=O)N[C@@H](CCC(N)=O)C(=O)N[C@@H](CCC(N)=O)C(=O)N[C@@H](CCCCN)C(=O)N[C@@H](CCC(N)=O)C(=O)N[C@@H](CCCCN)C(=O)N[C@@H](CCCCN)C(=O)N[C@@H](CCC(=O)O)C(=O)N[C@@H](CCCNC(=N)N)C(=O)N[C@@H](CCC(N)=O)C(=O)N[C@@H](CCC(N)=O)C(=O)N[C@@H](C)C(=O)N[C@@H](CCC(=O)O)C(=O)N[C@H](C(=O)N[C@@H](CC(N)=O)C(=O)N[C@H](C(=O)N[C@@H](CCC(N)=O)C(=O)N[C@@H](CC(C)C)C(=O)N[C@@H](CC(C)C)C(=O)N[C@@H](CCC(=O)O)C(=O)N[C@@H](CCCNC(=N)N)C(=O)N[C@H](C(N)=O)C(C)C)C(C)C)[C@@H](C)O [compound 56] (H-FTLSLDVPIGLK([AEEA-AEEA-γGlu-C18 diacid])QILLKQQKQKKERQQAETNVQLLERV-NH2) | 22.9 nM |
| CC[C@H](C)[C@H](NC(=O)[C@H](CCC(N)=O)NC(=O)[C@H](CCCCNC(=O)COCCOCCNC(=O)COCCOCCNC(=O)CC[C@H](NC(=O)CCCCCCCCCCCCCCCCC(=O)O)C(=O)O)NC(=O)[C@H](CC(C)C)NC(=O)CNC(=O)[C@@H](NC(=O)[C@@H]1CCCN1C(=O)[C@@H](NC(=O)[C@H](CC(=O)O)NC(=O)[C@H](CC(C)C)NC(=O)[C@H](CO)NC(=O)[C@H](CC(C)C)NC(=O)[C@@H](NC(=O)[C@@H](N)Cc1ccccc1)[C@@H](C)O)C(C)C)[C@@H](C)CC)C(=O)N[C@@H](CC(C)C)C(=O)N[C@@H](CC(C)C)C(=O)N[C@@H](CCCCN)C(=O)N[C@@H](CCC(N)=O)C(=O)N[C@@H](CCC(N)=O)C(=O)N[C@@H](CCCCN)C(=O)N[C@@H](CCC(N)=O)C(=O)N[C@@H](CCCCN)C(=O)N[C@@H](CCCCN)C(=O)N[C@@H](CCC(=O)O)C(=O)N[C@@H](CCCNC(=N)N)C(=O)N[C@@H](CCC(N)=O)C(=O)N[C@@H](CCCCN)C(=O)N[C@@H](C)C(=O)N[C@@H](CCC(=O)O)C(=O)N[C@H](C(=O)N[C@@H](CC(N)=O)C(=O)N[C@H](C(=O)N[C@@H](CCC(N)=O)C(=O)N[C@@H](CC(C)C)C(=O)N[C@@H](CC(C)C)C(=O)N[C@@H](CCC(=O)O)C(=O)N[C@@H](CCCNC(=N)N)C(=O)N[C@H](C(N)=O)C(C)C)C(C)C)[C@@H](C)O [compound 57] (H-FTLSLDVPIGLK([AEEA-AEEA-γGlu-C18 diacid])QILLKQQKQKKERQKAETNVQLLERV-NH2; N-terminus assumed) | 38.8 nM |
| CC[C@H](C)[C@H](NC(=O)[C@H](CCC(N)=O)NC(=O)[C@H](CCCCNC(=O)COCCOCCNC(=O)COCCOCCNC(=O)CC[C@H](NC(=O)CCCCCCCCCCCCCCCCCCC(=O)O)C(=O)O)NC(=O)[C@@H](NC(=O)[C@H](CCCCN)NC(=O)[C@@H](NC(=O)[C@@H]1CCCN1C(=O)[C@@H](NC(=O)[C@H](CC(=O)O)NC(=O)[C@H](CC(C)C)NC(=O)[C@H](CO)NC(=O)[C@H](CC(C)C)NC(=O)[C@@H](NC(=O)[C@@H](N)Cc1ccccc1)[C@@H](C)O)C(C)C)[C@@H](C)O)[C@@H](C)CC)C(=O)N[C@@H](CC(C)C)C(=O)N[C@@H](CC(C)C)C(=O)N[C@@H](CCCCN)C(=O)N[C@@H](CCC(N)=O)C(=O)N[C@@H](CCC(N)=O)C(=O)N[C@@H](CCCCN)C(=O)N[C@@H](CCC(N)=O)C(=O)N[C@@H](CCCCN)C(=O)N[C@@H](CCCCN)C(=O)N[C@@H](CCC(=O)O)C(=O)N[C@@H](CCCNC(=N)N)C(=O)N[C@@H](CCC(N)=O)C(=O)N[C@@H](CCCCN)C(=O)N[C@@H](C)C(=O)N[C@@H](CCC(=O)O)C(=O)N[C@H](C(=O)N[C@@H](CC(N)=O)C(=O)N[C@H](C(=O)N[C@@H](CCC(N)=O)C(=O)N[C@@H](CC(C)C)C(=O)N[C@@H](CC(C)C)C(=O)N[C@@H](CCC(=O)O)C(=O)N[C@@H](CCCNC(=N)N)C(=O)N[C@H](C(N)=O)C(C)C)C(C)C)[C@@H](C)O [compound 64] (H-FTLSLDVPTKIK([AEEA-AEEA-γGlu-C20 diacid])QILLKQQKQKKERQKAETNVQLLERV-NH2) | 13.2 nM |
| CC[C@H](C)[C@H](NC(=O)[C@H](CCC(N)=O)NC(=O)[C@H](CCCCNC(=O)COCCOCCNC(=O)COCCOCCNC(=O)CC[C@H](NC(=O)CCCCCCCCCCCCCCCCCCC(=O)O)C(=O)O)NC(=O)[C@H](CC(C)C)NC(=O)CNC(=O)[C@@H](NC(=O)[C@@H]1CCCN1C(=O)[C@@H](NC(=O)[C@H](CC(=O)O)NC(=O)[C@H](CC(C)C)NC(=O)[C@H](CO)NC(=O)[C@H](CC(C)C)NC(=O)[C@@H](NC(=O)[C@@H](N)Cc1ccccc1)[C@@H](C)O)C(C)C)[C@@H](C)CC)C(=O)N[C@@H](CC(C)C)C(=O)N[C@@H](CC(C)C)C(=O)N[C@@H](CCCCN)C(=O)N[C@@H](CCC(N)=O)C(=O)N[C@@H](CCC(N)=O)C(=O)N[C@@H](CCCCN)C(=O)N[C@@H](CCC(N)=O)C(=O)N[C@@H](CCCCN)C(=O)N[C@@H](CCCCN)C(=O)N[C@@H](CCC(=O)O)C(=O)N[C@@H](CCCNC(=N)N)C(=O)N[C@@H](CCC(N)=O)C(=O)N[C@@H](CCC(N)=O)C(=O)N[C@@H](C)C(=O)N[C@@H](CCC(=O)O)C(=O)N[C@H](C(=O)N[C@@H](CC(N)=O)C(=O)N[C@H](C(=O)N[C@@H](CCC(N)=O)C(=O)N[C@@H](CC(C)C)C(=O)N[C@@H](CC(C)C)C(=O)N[C@@H](CCC(=O)O)C(=O)N[C@@H](CCCNC(=N)N)C(=O)N[C@H](C(N)=O)C(C)C)C(C)C)[C@@H](C)O [compound 65] (H-FTLSLDVPIGLK([AEEA-AEEA-γGlu-C20 diacid])QILLKQQKQKKERQQAETNVQLLERV-NH2) | 9.31 nM |

Reference: US12679878B2, “CRF2 receptor agonists and their use in therapy” (SANOFI, priority 2020, dated 2026)
